# Assay results published in paper PMC11012124, “Synthesis of Novel Triazine-Based Chalcones and 8,9-dihydro-7H-pyrimido[4,5-b][1,4]diazepines as Potential Leads in the Search of Anticancer, Antibacterial and Antifungal Agents” (International Journal of Molecular Sciences, 2024).
# Columns and labels:
# [1] = tested on: EKVX; experiment: cells; conditions: Homo sapiens, 48 h
# [2] = tested on: K-562; experiment: cells; conditions: Homo sapiens, K562, 48 h
# [3] = tested on: LOX IMVI; experiment: cells; conditions: Homo sapiens, 48 h
# [4] = tested on: MOLT-4; experiment: cells; conditions: Homo sapiens, MOLT-4, 48 h
# [5] = tested on: PC-3; experiment: cells; conditions: Homo sapiens, PC-3, 48 h
# [6] = tested on: HS 578T; experiment: cells; conditions: Homo sapiens, 48 h
# [7] = tested on: SW-620; experiment: cells; conditions: Homo sapiens, SW-620, 48 h
# [8] = tested on: UACC-257; experiment: cells; conditions: Homo sapiens, UACC-257, 48 h
# [9] = tested on: MALME-3M; experiment: cells; conditions: Homo sapiens, 48 h
# [10] = tested on: MDA-MB-231/ATCC; experiment: cells; conditions: Homo sapiens, MDA-MB-231, 48 h
# [11] = Hemolytic activity, spectrophotometric; format: cell-based, human; conditions: human, human red blood cells (huRBC), 5% hematocrit, 200 μg/mL, 37 °C
# [12] = tested on: HCT-116; experiment: cells; conditions: Homo sapiens, HCT-116, 48 h
# [13] = tested on: ACHN; experiment: cells; conditions: Homo sapiens, 48 h
# [14] = tested on: NCI-H23; experiment: cells; conditions: Homo sapiens, NCI-H23, 48 h
# [15] = tested on: RPMI-8226; experiment: cells; conditions: Homo sapiens, RPMI-8226, 48 h
# [16] = tested on: BT-549; experiment: cells; conditions: Homo sapiens, BT-549, 48 h
# [17] = tested on: MDA-MB-435; experiment: cells; conditions: Homo sapiens, MDA-MB-435, 48 h
# [18] = tested on: OVCAR-5; experiment: cells; conditions: Homo sapiens, OVCAR-5, 48 h
# [19] = tested on: 60 cancer cell lines; experiment: NCI-60 one-dose screen (10 μM); format: cell-based; conditions: Homo sapiens; one dose of 10 μM, mean over 60 cancer cell lines; read-out: Mean Growth Percent (MGP)
# Text: Additionally, the mean of the growth percentages (MGP) of each compound against all the 60 cancer cell lines is also reported, which is used as one of the selection criteria to continue with tests at five concentration doses.
# [20] = tested on: SF-539; experiment: cells; conditions: Homo sapiens, SF-539, 48 h
# [21] = tested on: IGROV1; experiment: cells; conditions: Homo sapiens, IGROV-1, 48 h
# [22] = tested on: SN12C; experiment: cells; conditions: Homo sapiens, 48 h
# [23] = tested on: OVCAR-8; experiment: cells; conditions: Homo sapiens, OVCAR-8, 48 h
# [24] = tested on: MCF7; experiment: cells; conditions: Homo sapiens, MCF7, 48 h
# [25] = tested on: NCI-H226; experiment: cells; conditions: Homo sapiens, NCI-H226, 48 h
# [26] = tested on: SK-MEL-28; experiment: cells; conditions: Homo sapiens, SK-MEL-28, 48 h
# [27] = tested on: HL-60(TB); experiment: cells; conditions: Homo sapiens, HL-60, 48 h
# [28] = tested on: NCI-H460; experiment: cells; conditions: Homo sapiens, NCI-H460, 48 h
# [29] = tested on: SK-OV-3; experiment: cells; conditions: Homo sapiens, SK-OV-3, 48 h
# [30] = tested on: RXF 393; experiment: cells; conditions: Homo sapiens, RXF 393, 48 h
# [31] = tested on: HCC-2998; experiment: cells; conditions: Homo sapiens, HCC 2998, 48 h
# [32] = tested on: CCRF-CEM; experiment: cells; conditions: Homo sapiens, 48 h
# [33] = tested on: SNB-75; experiment: cells; conditions: Homo sapiens, SNB-75, 48 h, read-out: LC50
# [34] = tested on: A549/ATCC; experiment: cells; conditions: Homo sapiens, A549, 48 h
# [35] = tested on: TK-10; experiment: cells; conditions: Homo sapiens, TK-10, 48 h
# [36] = tested on: A498; experiment: cells; conditions: Homo sapiens, A498, 48 h
# [37] = tested on: HOP-92; experiment: cells; conditions: Homo sapiens, HOP-92, 48 h
# [38] = tested on: M14; experiment: cells; conditions: Homo sapiens, M14, 48 h
structure (smiles),measurement,setting,value
COc1cc(/C=C/C(=O)c2ccc(S(=O)(=O)NCCNc3nc(Nc4ccc(F)cc4)nc(N(C)C)n3)cc2)cc(OC)c1OC [24d],GI50,[1],4.85 µM
same,CC50,[1]; read-out: LC50,42.2 µM
same,GI50,"[2]; K-562, 48 h",2.73 µM
same,CC50,[2]; read-out: LC50,> 100 µM
same,GI50,[3],1.71 µM
same,CC50,"[3]; read-out: LC50, LOX IMVI, 48 h",5.62 µM
same,GI50,[4],2.74 µM
same,CC50,[4]; read-out: LC50,> 100 µM
same,GI50,[5],3.22 µM
same,CC50,[5]; read-out: LC50,> 100 µM
same,GI50,[6],8.24 µM
same,CC50,[6]; read-out: LC50,> 100 µM
same,GI50,[7],1.95 µM
same,CC50,[7]; read-out: LC50,7.43 µM
same,GI50,[8],15.1 µM
same,CC50,[8]; read-out: LC50,65.1 µM
same,GI50,[9],11.9 µM
same,CC50,[9]; read-out: LC50,55.2 µM
same,GI50,[10],4.41 µM
same,CC50,[10]; read-out: LC50,83.4 µM
same,"hemolysis at 24 h, 200 µg/mL",[11],2.3%
same,GI50,[12],1.77 µM
same,CC50,[12]; read-out: LC50,7.66 µM
same,GI50,[13],5.13 µM
same,CC50,[13]; read-out: LC50,60.4 µM
same,GI50,[14],3.03 µM
same,CC50,[14]; read-out: LC50,34.9 µM
same,GI50,[15],2.5 µM
same,CC50,[15]; read-out: LC50,> 100 µM
same,GI50,[16],2.25 µM
same,CC50,[16]; read-out: LC50,31.2 µM
same,GI50,[17],2.8 µM
same,CC50,[17]; read-out: LC50,93.9 µM
same,GI50,[18],12.9 µM
same,CC50,[18]; read-out: LC50,55.4 µM
same,activity at 10 µM,[19],-0.31%
same,GI50,[20],1.71 µM
same,CC50,"[20]; read-out: LC50, SF-539, 48 h",5.93 µM
same,GI50,[21],16.1 µM
same,CC50,[21]; read-out: LC50,59.8 µM
same,GI50,[22],5.71 µM
same,CC50,[22]; read-out: LC50,63.6 µM
same,GI50,[23],11.1 µM
same,CC50,[23]; read-out: LC50,> 100 µM
same,GI50,[24],1.96 µM
same,CC50,[24]; read-out: LC50,9.34 µM
same,GI50,[25],4.47 µM
same,CC50,[25]; read-out: LC50,> 100 µM
same,GI50,[26],6.13 µM
same,CC50,[26]; read-out: LC50,44.6 µM
same,GI50,[27],2.64 µM
same,CC50,[27]; read-out: LC50,> 100 µM
same,GI50,[28],5.12 µM
same,CC50,[28]; read-out: LC50,50.6 µM
same,GI50,[29],21.8 µM
same,CC50,[29]; read-out: LC50,> 100 µM
same,GI50,[30],1.45 µM
same,CC50,[30]; read-out: LC50,6.74 µM
same,GI50,[31],1.62 µM
same,CC50,[31]; read-out: LC50,5.52 µM
same,GI50,[32],3.62 µM
same,CC50,[32]; read-out: LC50,> 100 µM
same,CC50,[33],91.9 µM
same,GI50,[34],12.2 µM
same,CC50,[34]; read-out: LC50,78.6 µM
same,GI50,[35],13.1 µM
same,CC50,[35]; read-out: LC50,> 100 µM
same,GI50,[36],11.3 µM
same,CC50,[36]; read-out: LC50,50.3 µM
same,GI50,[37],11.5 µM
same,CC50,[37]; read-out: LC50,> 100 µM
same,GI50,[38],3.28 µM
same,CC50,[38]; read-out: LC50,47.4 µM
